Data on 88 compounds can be found in a melting point compilation (Tetko et al.; mined from patent text by program, amines drawn as free bases though some values may be those of a salt).

By melting point is commonly meant the temperature of the solid-liquid transition.

`CNC(=O)c1cc2c(nc(C)n2C)c2c1CCC1(Cc3ccccc3C1)N2` returned a melting point of 237 to 238 °C.

The compound `Cc1nc(-c2ccccc2)nc(OCC(=O)N(CC2CC2)c2ccccc2)c1C` displayed a melting point of 119 to 121 °C.

In turn, `COc1ccc(N2CCN(Cc3n[nH]c4c(Cl)cccc34)CC2)cc1` yielded a melting point of 190 to 191 °C.

For the compound `CN1CCCC(c2cc3ccccc3c(=O)[nH]2)C1` (stereo not drawn), the melting point is 155 to 156 °C.

In turn, `CCOc1c(Nc2cccc(C3C(C(=O)OC)=C(C)NC(C)=C3C(=O)OC)c2)c(=O)c1=O` yielded a melting point of 249 to 252 °C.

`Cc1cc(C(=O)Nc2ccc(Cl)nc2)ccc1[N+](=O)[O-]` gave a melting point of 290 °C.

`CNC(=O)c1cc(C#N)cc(Cl)c1NC(=O)c1cc(Cl)nn1-c1ncccc1Cl` showed a melting point of 197 to 200 °C.

With `CC(=O)Oc1cccc2c1N=CC1CCCN1C2=O` (stereo not drawn), the melting point lay within 143 to 146 °C.

In turn, `O=C(Cc1ccccc1)Oc1cc(=O)n(-c2ccccc2)c2ncccc12` showed a melting point of 179 to 180 °C.

`OCCCc1cn(-c2ccc(C(F)(F)F)cn2)nc1C1CCCCC1` displayed a melting point of 106 to 107 °C.

The compound `CCCCCCCCCCCC/C=C/c1ccc2c(c1)OCO2` displayed a melting point of 34 to 36 °C.

`CC1(C)NC(=O)c2cc(C#N)ccc2O1` showed a melting point of 127 to 129 °C.

`CC1CCN(C(=O)[C@H](CCCSc2ccccn2)NS(=O)(=O)c2ccc3ccccc3c2)CC1` gave a melting point of 131 to 132 °C.

The compound `CCCCCCCn1c(C)c(CC(=O)O)c2cc(OCc3ccc4ccccc4n3)ccc21` displayed a melting point of 127 to 131 °C.

`Fc1ccc(Nc2ncnc3cnc(OC4CCOC4)nc23)cc1Cl` (stereo not drawn) yielded a melting point of 163 to 165 °C.

On to `C[C@]1(COc2ccc(N3CCN(C(=O)NCc4ccc(OC(F)(F)F)cc4)CC3)cc2)Cn2cc([N+](=O)[O-])nc2O1`, for which the melting point was in the range of 166 to 168 °C.

`Cc1ccc2c(c1)SC1(CCOC1=O)C2=O` (stereo not drawn): the melting point was in the range of 122 to 124 °C.

In the case of `C=CCc1cc(COC(=O)C(C)(C)C)ccc1C#CC1(O)CN2CCC1CC2` (stereo not drawn), the melting point worked out at 73 °C.

In turn, `Cc1ccc(-c2ccc(C(=O)Nc3ccc4nc(CN(C(C)C)C(C)C)ccc4c3)cn2)cc1` yielded a melting point of 211 to 213 °C.

For the compound `COC(=O)c1ccc(CC(C)NCC(O)c2ccc(O)c(CO)c2)cc1C` (stereo not drawn), the melting point was 82 to 85 °C.

`Cc1nc2cc(C(O)(c3ccc(Cl)cc3)c3cncn3C)cc3c(-c4cccc(Cl)c4)cc(=O)n1c23` (stereo not drawn) gave a melting point of 170 °C.

Turning to `N#CC1CC2CC2N1C(=O)C(N)C12CC3CC(CC(O)(C3)C1)C2` (stereo not drawn), the melting point lay in the range of 105 to 108 °C.

As for `CC1Cc2ccccc2C(O)(C2CCN(C)CC2)c2ccsc21` (stereo not drawn), the melting point lay in the range of 177 to 178 °C.

Compound `O=C(c1cccc(C(F)(F)F)c1)N1CCc2cc(S(=O)(=O)N3CC(c4ccccc4)NC3=O)ccc21` (stereo not drawn) came in with a melting point of 119 °C.

Turning to `C1=C(c2ccccc2)c2ccccc2C1(Cc1ccncc1)Cc1ccncc1`, the melting point was > 250 °C.

The compound `NS(=O)(=O)c1ccccc1-c1ccno1` showed a melting point of 132 to 135 °C.

In turn, `CCCCCCCCCCCc1nc2c(O)c(NC(C)=O)cc(Cl)c2cc1CCCCCCCCCC` registered a melting point of 120 to 121 °C.

The compound `CCOC(=O)C1=C(N)N=C(OCC)C(C(=O)OCC)C1c1ccc(-c2ccccc2)cc1` (stereo not drawn) gave a melting point of 145 °C.

Compound `COc1ccc2sc(=NN3C(=O)CSC3=S)sc2c1` came in with a melting point of 254 to 255 °C.

Consider `COc1cc(CO)c([N+](=O)[O-])cc1OCCCCCCOC(C)=O`, for which the melting point was > 220 °C.

`NC(=O)c1ccc(CCBr)cc1`: the melting point is 152 to 153 °C.

Regarding `O=Cc1ccc(C2CCCc3cncn32)cc1` (stereo not drawn), the melting point is 131 °C.

In turn, `CC(C)(C)CC(C)(C)NC(=O)Nc1ccccc1CCc1cc(C(C)(C)C)c(O)c(C(C)(C)C)c1` gave a melting point of 168 to 169 °C.

For `Cc1c(Br)nc2n1CCc1ccccc1C2=C1CCN(C)CC1`, the melting point was found to be 116 °C.

For `CC(C)(O/N=C(\C(=O)N[C@@H]1C(=O)N[C@@H]1COC(=O)NC(=O)CCl)c1csc(NC(=O)CCl)n1)C(=O)OCc1ccc([N+](=O)[O-])cc1` (relative stereo), the melting point was in the range of 206 to 209 °C.

Consider `O=C(c1ccc(F)cc1)C1CCN(CCCC2(c3ccc(F)cc3)OCCO2)CC1`, for which the melting point is 62 to 64 °C.

`CN1CC(C(=O)CN2CCOCC2)CC2c3cccc4[nH]cc(c34)CC21` (stereo not drawn) came in with a melting point of 178 to 180 °C.

As for `CCCCOC(=O)c1ccc(C(=O)c2ccccc2)cc1`, the melting point was in the range of 50 to 60 °C.

In turn, `COc1c2c(cc3c1OCO3)C(=O)CN(C)C2` showed a melting point of 116 to 119 °C.

Compound `CCc1cccc2c1C(=O)N(Cn1nnn(-c3ccccc3)c1=S)S2(=O)=O` came in with a melting point of 127 to 129 °C.

The compound `CCCc1nc2c(N)nc3cc(OCCCCCCNC(=O)c4ccc(N=[N+]=[N-])cc4O)ccc3c2s1` came in with a melting point of 127 to 128 °C.

In the case of `Cc1nc(-c2ccccc2)nc(-c2cccc([N+](=O)[O-])c2)c1CN`, the melting point lay within 145 to 147 °C.

Take `COc1ccc(C2=NN(c3cccc(C(=O)O)c3)C(=O)C(C)(C)C2)cc1OC`: the melting point is 165 to 167 °C.

`Cc1cn(C(C)C(=O)N2CCCC2)nc1-c1ccccc1` (stereo not drawn) gave a melting point of 72 to 74 °C.

`O=C(O)CO[C@@H]1CCCC[C@H]1NC(=O)Nc1ccccc1` (relative stereo) had a melting point of 166 to 168 °C.

In turn, `COc1ccc2cc3c(N)nn(-c4ccccc4)c3nc2c1` displayed a melting point of 159 to 160 °C.

`O=C1NC(C(=O)NCCO[N+](=O)[O-])C(c2cccs2)O1` (stereo not drawn) showed a melting point of 101 to 103 °C.

In turn, `Cc1ccc(C23CC(C2)C(=O)N(C)C3=O)cc1` registered a melting point of 138 to 140 °C.

As to `CCCc1c(OCCc2cc3cc(CC(=O)O)ccc3[nH]2)ccc2c(-c3ccccc3)coc12`, the melting point lay within 129 to 130 °C.

In the case of `Cc1ccc(N2C(=O)N(CC(=O)Nc3c(C(C)C)cccc3C(C)C)C(=O)C23CCC(O)CC3)cc1` (stereo not drawn), the melting point is 142 to 144 °C.

`CSC1C(=O)c2ccccc2N1C(=O)c1ccccc1` (stereo not drawn) came in with a melting point of 126 to 128 °C.

For `CNC(=S)NS(=O)(=O)c1cc(CCNC(=O)c2cnc3ccccc3c2)ccc1OCCOCC(F)(F)F`, the melting point is 115 to 120 °C.

`O=C(O)c1ccc2[nH]c(C(=O)O)cc2c1` came in with a melting point of 314 to 315 °C.

For the compound `CN1C(=O)C(CCCCBr)Sc2ccccc21` (stereo not drawn), the melting point was 116 °C.

Turning to `N#Cc1c(N2CCCC2)cc(-c2ccccc2)c2c1-c1ccccc1C2`, the melting point was in the range of 158 to 160 °C.

Consider `COc1ccc(C(=O)c2cc(OC)c(OC)c(OC)c2)cc1`, for which the melting point lay within 72 to 73 °C.

Consider `Cn1cncc1C(N)(c1ccc(Cl)cc1)c1ccc2c(c1)c(-c1cccc(Cl)c1)nc1nnnn12` (stereo not drawn), for which the melting point turned out to be 159 °C.

Regarding `CCOC(=O)C(C(=O)OCC)c1cc(=O)n(-c2ccccc2)c2ccccc12`, the melting point fell in the range of 101 to 103 °C.

Take `COc1cccc(-c2nc(NO)nc(Nc3cccc([N+](=O)[O-])c3)n2)c1`: the melting point was 197 to 198 °C.

Consider `Cc1ccc(NC(=N)Nc2nc(-c3ccccc3)cs2)cc1`, for which the melting point was 152 to 153 °C.

As for `COC(=O)CCCc1cc2cc(C(F)(F)F)ccc2n1S(=O)(=O)c1cccc(C(C)(C)C)c1`, the melting point stood at 84 °C.

`O=C(O)c1cccc(Br)c1Nc1ccccc1Br` returned a melting point of 181 to 182 °C.

In turn, `Clc1cn2c(Cl)cnc2cn1` displayed a melting point of 115 to 116 °C.

`COC(=O)c1ccc(NC(=O)/C=C/c2c(C)noc2-c2ccccc2)cc1` came in with a melting point of 174 to 175 °C.

Consider `O=C(Nc1cccc2cc(C(=O)O)[nH]c12)c1cc(OCc2ccccc2F)cc(OCc2ccccc2F)c1`, for which the melting point lay in the range of 271 to 273 °C.

Consider `CCOC(=O)Nc1nc(=O)c2cnn3c2n1CC=C3c1cccc(C(F)(F)F)c1`, for which the melting point lay in the range of 219 to 220 °C.

On to `CCn1nc(-c2ncc(N)nc2-c2ccccc2)ccc1=O`, for which the melting point was 227 to 229 °C.

`CCOC(=O)c1c(-c2ccccc2C)c2cc(Cl)ccc2n(C)c1=O` yielded a melting point of 113 to 114 °C.

Take `O=C(O)c1cccc2cc(Oc3c(Cl)cc(NS(=O)(=O)c4ccc(Cl)cc4Cl)cc3Cl)cnc12`: the melting point lay in the range of 263 to 266 °C.

Compound `O=C1NC(C(=O)NCCO[N+](=O)[O-])C(Cc2ccccc2)S1` (stereo not drawn) had a melting point of 123 to 124 °C.

Turning to `CCOCn1c(C(F)(F)F)nc2cc(Cl)c(Cl)cc21`, the melting point fell in the range of 89 to 92 °C.

For the compound `CCc1cccc(C=CC(=O)CCCc2ccccc2)c1NC(=O)CC1c2ccccc2Oc2ccccc21`, the melting point was 168 to 170 °C.

As to `CC1(C)CC(C2CCC(O)CC2)CC(C)(C)N1` (stereo not drawn), the melting point lay in the range of 145 to 150 °C.

With `CCCCC(=O)Nc1ccc2c(c1)C(=O)OC2CCCC` (stereo not drawn), the melting point is 137 to 139 °C.

For the compound `COc1ccc2c(c1)c(=O)c(CO)cn2C`, the melting point lay within 194 to 197 °C.

With `Cc1cc(-c2cc(C(F)(F)F)nc(-n3cnc(-c4cccc(S(N)(=O)=O)c4)c3)n2)ccc1C(F)(F)F`, the melting point worked out at 180 °C.

Compound `CC(C)(C)OC(=O)NCc1ccc(C(=O)NNC(=O)OCc2ccccc2)cc1` displayed a melting point of 160 to 162 °C.

Take `NC(=NO)c1ncn2c1N1CCN=C1c1ccccc1-2`: the melting point lay in the range of 209 to 212 °C.

`CCC(CC)N(O)C(=O)Nc1ccc(Cc2ccccc2)cc1`: the melting point was 132 to 134 °C.

Take `O=C1NC(=O)C(=Cc2ccc(N3CCC4(CC3)OCCO4)c(F)c2)S1`: the melting point lay within 159 to 160 °C.

For `CCCc1cc(NCc2ccc(Cl)cc2)nc(SCC#N)n1`, the melting point was in the range of 68 to 70 °C.

On to `Nc1nc2c(ncn2OCC(O)CCP(=O)(O)O)c(=O)[nH]1` (stereo not drawn), for which the melting point was > 315 °C.

The compound `NC(=O)c1c(F)ccc(OCC(=O)O)c1F` yielded a melting point of 152 to 153 °C.

On to `Clc1nsnc1-c1cccnc1`, for which the melting point fell in the range of 48 to 49 °C.

As to `O=Cc1c[nH]c(-c2cccs2)c1`, the melting point fell in the range of 198 to 199 °C.

`COc1cc(CP(=O)(OC)OC)c2c(CP(=O)(OC)OC)cc(OC)cc2c1` had a melting point of 135 to 136 °C.

`CCOC(=O)Cc1nc(-c2ccc(C)cc2)oc1-c1ccco1` showed a melting point of 84 to 85 °C.

`O=C(Nc1c[nH]nc1C(=O)NCCCOc1ccccc1)c1ccccn1` showed a melting point of 182 to 184 °C.
